Consider ten molecules from ChEMBL document CHEMBL5465560, “Selectivity Literature for EUbOPEN Chemogenomic Library” (2024).

In series [1] the target is Insulin receptor-related protein (Homo sapiens) (UniProt P14616). The settings on record: at 10 µM.
The target of series [2] is RAC-beta serine/threonine-protein kinase (Homo sapiens) (UniProt P31751). The conditions noted are these: at 10 µM.
For series [3], the target named is Casein kinase II subunit alpha' (Homo sapiens) (UniProt P19784). The settings on record: at 10 µM.
Series [4] concerns the target Serine/threonine-protein kinase SIK3 (Homo sapiens) (UniProt Q9Y2K2). The series is described as follows: Selectivity interaction (KinomeScan (DiscoverX)) EUB0000092b SIK3. The settings on record: at 10 µM.
Series [5] concerns the target Vascular endothelial growth factor receptor 1 (Homo sapiens) (UniProt P17948). Kind of series: Selectivity interaction (KinomeScan (DiscoverX)) EUB0001049a FLT1. The settings on record: at 1 µM.
In series [6] the target is Glycogen synthase kinase-3 alpha (Homo sapiens, UniProt P49840). Kind of series: Selectivity interaction (KinomeScan (DiscoverX)) EUB0000655a GSK3A. The conditions noted are these: at 10 µM.
The target of series [7] is T1, Alpha-2A adrenergic receptor (Homo sapiens) (UniProt P08913).
T1 sequence (whole entry): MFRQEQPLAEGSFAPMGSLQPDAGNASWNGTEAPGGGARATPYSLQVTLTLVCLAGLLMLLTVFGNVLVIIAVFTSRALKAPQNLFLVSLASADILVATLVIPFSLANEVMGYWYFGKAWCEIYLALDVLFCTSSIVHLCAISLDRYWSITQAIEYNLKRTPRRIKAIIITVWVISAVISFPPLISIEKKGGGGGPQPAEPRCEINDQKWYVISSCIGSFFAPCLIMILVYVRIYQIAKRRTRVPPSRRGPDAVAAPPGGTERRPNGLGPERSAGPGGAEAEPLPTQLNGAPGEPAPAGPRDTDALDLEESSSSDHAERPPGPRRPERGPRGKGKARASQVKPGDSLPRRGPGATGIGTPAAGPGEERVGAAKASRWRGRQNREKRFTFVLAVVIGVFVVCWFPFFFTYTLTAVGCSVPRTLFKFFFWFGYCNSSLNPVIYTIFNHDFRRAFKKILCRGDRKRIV
Kind of series: Selectivity interaction (Eurofins CEREP Diversity Profile (receptors and ion channels)) EUB0000279b ADRA2A. The settings on record: at 10 µM.

Series [8] has as its target T2, Lymphokine-activated killer T-cell-originated protein kinase (Homo sapiens) (UniProt Q96KB5).
T2 sequence (whole entry): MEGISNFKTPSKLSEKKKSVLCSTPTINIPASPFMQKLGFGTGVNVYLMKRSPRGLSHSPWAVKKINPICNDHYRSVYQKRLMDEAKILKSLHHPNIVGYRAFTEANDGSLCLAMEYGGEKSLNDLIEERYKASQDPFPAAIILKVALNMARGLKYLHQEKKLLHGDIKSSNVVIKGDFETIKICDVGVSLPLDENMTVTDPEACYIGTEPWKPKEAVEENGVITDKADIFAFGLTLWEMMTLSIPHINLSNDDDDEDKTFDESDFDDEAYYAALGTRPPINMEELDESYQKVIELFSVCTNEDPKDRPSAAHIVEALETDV
Kind of series: Selectivity interaction (Kinase panel (DSF assay)) EUB0001559a PBK.

The next series concerns the target hERG (KCNH2) (Homo sapiens, UniProt Q12809). The series is described as follows: Selectivity interaction (Safety Panel 44tm (Eurofins)) EUB0000162b KCNH2. The settings on record: at 10 µM, read-out: % of control.
In series [9] the target is T3, Mitogen-activated protein kinase kinase kinase 7 (Homo sapiens) (UniProt O43318).
T3 sequence (whole entry): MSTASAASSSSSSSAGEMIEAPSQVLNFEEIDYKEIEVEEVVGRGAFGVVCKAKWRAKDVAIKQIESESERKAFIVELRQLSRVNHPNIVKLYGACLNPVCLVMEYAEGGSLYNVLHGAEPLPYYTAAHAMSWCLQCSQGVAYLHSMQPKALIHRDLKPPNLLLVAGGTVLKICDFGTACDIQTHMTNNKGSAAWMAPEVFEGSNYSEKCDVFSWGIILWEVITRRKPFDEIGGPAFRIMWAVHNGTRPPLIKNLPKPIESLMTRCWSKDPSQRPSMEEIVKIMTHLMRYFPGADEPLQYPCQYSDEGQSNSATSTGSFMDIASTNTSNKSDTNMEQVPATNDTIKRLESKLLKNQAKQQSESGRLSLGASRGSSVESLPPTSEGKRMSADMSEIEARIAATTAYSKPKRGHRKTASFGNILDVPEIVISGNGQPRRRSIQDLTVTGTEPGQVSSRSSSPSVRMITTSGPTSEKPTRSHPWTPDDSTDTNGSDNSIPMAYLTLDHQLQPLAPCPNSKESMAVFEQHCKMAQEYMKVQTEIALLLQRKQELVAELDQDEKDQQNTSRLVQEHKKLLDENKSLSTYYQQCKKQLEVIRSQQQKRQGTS
Kind of series: Selectivity interaction (Kinase panel (literature)) EUB0001199aCl MAP3K7. The conditions noted are these: at 1 µM.

The target in series [10] is T4, Dual specificity mitogen-activated protein kinase kinase 5 (Homo sapiens) (UniProt Q13163).
T4 sequence (whole entry): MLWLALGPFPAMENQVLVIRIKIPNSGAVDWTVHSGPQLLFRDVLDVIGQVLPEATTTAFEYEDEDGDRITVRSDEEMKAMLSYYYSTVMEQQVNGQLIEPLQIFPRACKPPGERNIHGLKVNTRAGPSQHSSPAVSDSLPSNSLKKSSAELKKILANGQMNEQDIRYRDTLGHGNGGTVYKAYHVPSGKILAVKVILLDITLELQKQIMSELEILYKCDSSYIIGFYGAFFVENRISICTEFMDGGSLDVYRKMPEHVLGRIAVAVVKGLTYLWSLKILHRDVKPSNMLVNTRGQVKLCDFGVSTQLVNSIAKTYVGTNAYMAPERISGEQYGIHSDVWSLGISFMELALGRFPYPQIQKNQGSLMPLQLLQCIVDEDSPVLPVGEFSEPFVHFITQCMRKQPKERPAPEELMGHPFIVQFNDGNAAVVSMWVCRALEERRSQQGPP
The series is described as follows: Selectivity interaction (KinomeScan (DiscoverX)) EUB0000618a MAP2K5. The settings on record: at 10 µM.

Molecules are shown by their SMILES.

Sequence of Serine/threonine-protein kinase SIK3 (Homo sapiens) (Q9Y2K2 whole entry, looked up): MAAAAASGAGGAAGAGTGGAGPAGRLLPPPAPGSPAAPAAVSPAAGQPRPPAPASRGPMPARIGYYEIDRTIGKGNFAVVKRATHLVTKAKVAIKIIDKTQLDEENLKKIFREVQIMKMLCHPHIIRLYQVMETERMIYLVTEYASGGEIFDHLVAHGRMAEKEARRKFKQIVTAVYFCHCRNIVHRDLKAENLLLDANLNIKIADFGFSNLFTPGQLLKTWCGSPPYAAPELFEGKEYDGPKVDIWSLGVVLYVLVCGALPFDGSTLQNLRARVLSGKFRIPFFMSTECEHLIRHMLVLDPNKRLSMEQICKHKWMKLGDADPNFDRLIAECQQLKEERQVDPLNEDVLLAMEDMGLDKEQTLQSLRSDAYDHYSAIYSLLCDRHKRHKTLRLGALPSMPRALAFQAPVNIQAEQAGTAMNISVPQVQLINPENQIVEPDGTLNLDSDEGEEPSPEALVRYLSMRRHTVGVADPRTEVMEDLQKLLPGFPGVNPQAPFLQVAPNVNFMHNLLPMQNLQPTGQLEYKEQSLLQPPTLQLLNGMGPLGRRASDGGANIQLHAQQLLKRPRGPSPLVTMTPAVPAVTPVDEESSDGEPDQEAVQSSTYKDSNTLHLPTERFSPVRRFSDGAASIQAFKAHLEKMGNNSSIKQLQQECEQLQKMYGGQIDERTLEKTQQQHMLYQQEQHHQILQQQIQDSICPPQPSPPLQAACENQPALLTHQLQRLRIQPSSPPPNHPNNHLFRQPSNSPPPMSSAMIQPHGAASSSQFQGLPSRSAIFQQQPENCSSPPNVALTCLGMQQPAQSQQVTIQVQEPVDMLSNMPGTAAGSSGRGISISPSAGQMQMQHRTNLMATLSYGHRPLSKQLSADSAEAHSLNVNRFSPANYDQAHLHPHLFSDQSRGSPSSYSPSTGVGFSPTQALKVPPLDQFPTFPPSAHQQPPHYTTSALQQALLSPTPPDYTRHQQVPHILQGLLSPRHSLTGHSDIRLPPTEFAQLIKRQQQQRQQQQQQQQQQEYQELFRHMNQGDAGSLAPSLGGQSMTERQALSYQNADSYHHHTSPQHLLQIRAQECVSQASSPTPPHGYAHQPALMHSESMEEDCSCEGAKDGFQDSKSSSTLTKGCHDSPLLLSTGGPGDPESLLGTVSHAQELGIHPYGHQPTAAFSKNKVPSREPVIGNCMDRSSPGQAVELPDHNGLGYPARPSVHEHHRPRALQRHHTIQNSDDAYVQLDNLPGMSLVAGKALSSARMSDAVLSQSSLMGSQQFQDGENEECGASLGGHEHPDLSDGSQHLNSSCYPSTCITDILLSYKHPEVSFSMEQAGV
Sequence of Glycogen synthase kinase-3 alpha (P49840 2-483 limits assumed): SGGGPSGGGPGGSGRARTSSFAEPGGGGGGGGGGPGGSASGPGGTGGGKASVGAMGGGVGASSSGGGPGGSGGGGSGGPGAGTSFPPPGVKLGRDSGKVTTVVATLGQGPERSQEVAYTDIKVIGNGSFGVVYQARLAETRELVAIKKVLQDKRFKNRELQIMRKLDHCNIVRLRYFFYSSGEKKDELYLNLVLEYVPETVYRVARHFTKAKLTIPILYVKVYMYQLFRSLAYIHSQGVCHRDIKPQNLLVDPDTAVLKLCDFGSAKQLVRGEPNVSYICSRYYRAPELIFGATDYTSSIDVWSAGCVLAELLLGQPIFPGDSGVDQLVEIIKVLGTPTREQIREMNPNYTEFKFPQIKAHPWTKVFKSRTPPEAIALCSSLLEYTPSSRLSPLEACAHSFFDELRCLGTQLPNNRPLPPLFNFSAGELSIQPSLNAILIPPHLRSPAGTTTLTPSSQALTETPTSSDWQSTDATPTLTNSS
Sequence of Insulin receptor-related protein (Homo sapiens) (P14616 27-742 limits assumed): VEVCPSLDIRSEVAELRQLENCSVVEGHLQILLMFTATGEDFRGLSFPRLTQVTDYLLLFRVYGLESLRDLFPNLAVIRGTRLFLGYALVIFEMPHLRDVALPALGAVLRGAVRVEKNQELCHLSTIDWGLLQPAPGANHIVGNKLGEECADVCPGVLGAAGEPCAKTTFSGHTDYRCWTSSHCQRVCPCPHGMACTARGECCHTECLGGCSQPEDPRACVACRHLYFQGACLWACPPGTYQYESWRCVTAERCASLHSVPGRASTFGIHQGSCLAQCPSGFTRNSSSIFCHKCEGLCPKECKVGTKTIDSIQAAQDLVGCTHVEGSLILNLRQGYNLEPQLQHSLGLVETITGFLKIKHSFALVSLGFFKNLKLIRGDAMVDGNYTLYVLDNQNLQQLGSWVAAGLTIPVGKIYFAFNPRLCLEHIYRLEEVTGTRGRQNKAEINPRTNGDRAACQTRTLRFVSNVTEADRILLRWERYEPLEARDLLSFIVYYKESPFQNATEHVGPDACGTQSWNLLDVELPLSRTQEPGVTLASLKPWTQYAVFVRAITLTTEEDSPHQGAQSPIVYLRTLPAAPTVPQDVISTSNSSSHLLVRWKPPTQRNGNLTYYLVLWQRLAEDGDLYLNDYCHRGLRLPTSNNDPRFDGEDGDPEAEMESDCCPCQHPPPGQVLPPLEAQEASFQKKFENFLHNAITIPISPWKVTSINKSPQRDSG
Sequence of Insulin receptor-related protein (Homo sapiens) (P14616 747-1297 limits assumed): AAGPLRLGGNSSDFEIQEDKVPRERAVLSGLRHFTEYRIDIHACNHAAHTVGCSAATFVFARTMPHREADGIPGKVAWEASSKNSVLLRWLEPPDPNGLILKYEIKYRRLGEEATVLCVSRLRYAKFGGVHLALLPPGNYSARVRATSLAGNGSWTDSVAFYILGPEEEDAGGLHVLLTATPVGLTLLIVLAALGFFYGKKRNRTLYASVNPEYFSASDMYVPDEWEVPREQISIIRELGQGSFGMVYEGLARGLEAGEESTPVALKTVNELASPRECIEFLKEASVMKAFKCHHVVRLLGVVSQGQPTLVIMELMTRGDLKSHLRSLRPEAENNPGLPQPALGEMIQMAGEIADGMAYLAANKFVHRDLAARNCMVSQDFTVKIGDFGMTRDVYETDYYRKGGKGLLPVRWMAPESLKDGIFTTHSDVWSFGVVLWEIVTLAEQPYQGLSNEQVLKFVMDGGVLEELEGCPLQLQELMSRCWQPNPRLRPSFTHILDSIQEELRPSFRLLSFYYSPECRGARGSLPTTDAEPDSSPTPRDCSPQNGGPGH
Sequence of Vascular endothelial growth factor receptor 1 (Homo sapiens) (P17948 whole entry): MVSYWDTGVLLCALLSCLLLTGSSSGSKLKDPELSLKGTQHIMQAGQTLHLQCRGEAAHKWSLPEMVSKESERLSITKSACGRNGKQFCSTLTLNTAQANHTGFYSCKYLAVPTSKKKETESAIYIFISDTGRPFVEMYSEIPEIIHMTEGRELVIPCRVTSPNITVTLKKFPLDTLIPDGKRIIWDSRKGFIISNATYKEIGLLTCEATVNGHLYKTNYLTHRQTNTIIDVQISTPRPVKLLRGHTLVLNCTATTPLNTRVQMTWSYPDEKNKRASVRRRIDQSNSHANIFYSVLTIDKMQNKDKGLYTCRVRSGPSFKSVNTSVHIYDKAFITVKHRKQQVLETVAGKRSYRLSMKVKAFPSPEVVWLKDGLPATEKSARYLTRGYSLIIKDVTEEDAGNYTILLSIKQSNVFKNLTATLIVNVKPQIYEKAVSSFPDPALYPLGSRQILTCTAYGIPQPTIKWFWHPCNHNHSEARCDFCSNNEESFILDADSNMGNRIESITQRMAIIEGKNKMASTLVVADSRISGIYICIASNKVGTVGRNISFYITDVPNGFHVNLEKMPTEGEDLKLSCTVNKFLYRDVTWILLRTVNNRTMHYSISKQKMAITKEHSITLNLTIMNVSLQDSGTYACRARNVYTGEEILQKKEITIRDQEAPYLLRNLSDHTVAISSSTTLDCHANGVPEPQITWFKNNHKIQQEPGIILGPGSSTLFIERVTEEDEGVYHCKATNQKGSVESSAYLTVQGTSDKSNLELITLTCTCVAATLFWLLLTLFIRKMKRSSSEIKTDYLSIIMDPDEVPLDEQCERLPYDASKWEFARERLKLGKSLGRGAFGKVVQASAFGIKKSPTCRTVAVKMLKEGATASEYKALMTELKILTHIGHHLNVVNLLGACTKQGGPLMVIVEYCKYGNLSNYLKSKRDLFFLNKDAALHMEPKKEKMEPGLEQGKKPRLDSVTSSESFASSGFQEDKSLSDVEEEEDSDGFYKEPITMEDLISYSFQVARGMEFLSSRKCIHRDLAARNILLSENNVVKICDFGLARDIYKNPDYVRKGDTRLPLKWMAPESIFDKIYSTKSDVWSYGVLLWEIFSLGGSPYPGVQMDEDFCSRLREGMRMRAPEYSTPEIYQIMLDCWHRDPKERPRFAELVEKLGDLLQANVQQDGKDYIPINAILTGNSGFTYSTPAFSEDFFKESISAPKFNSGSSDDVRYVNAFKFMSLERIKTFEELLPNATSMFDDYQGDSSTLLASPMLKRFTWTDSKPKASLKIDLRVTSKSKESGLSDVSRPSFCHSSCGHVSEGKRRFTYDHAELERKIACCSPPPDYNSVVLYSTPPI
Sequence of Casein kinase II subunit alpha' (Homo sapiens) (P19784 whole entry, looked up): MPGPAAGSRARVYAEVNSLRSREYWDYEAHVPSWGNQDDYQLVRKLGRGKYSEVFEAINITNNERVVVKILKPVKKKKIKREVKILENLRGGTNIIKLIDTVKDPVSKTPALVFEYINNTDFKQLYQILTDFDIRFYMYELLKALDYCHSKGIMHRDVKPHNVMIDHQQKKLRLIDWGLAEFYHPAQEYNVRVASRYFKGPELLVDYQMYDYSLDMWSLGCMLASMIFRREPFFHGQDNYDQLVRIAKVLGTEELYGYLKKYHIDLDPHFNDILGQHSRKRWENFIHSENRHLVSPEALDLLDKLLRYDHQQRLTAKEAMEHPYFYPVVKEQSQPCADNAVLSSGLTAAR

As for `Cc1cc([C@@H](C)Nc2ccccc2C(=O)O)c2nc(N3CCOCC3)cc(=O)n2c1` [AZD-6482], the % of control in [1] amounted to 100%.
Consider `CCN(CC)CCCCNc1ncc2cc(-c3cc(OC)cc(OC)c3)c(NC(=O)NC(C)(C)C)nc2n1`, for which the % of control in [2] and in [3] was 100% each time.
`CCC(=O)N1CCN(c2ccc(-n3c(=O)ccc4cnc5ccc(-c6cnc7ccccc7c6)cc5c43)cc2C(F)(F)F)CC1` showed a % of control in series [4] of 89%.
The molecule `COc1cc(Nc2nc(C)cc(-c3cnn4nc(OC)ccc34)n2)cc(C(F)(F)F)c1` returned a % of control in [5] of 82%.
In turn, `CN(C)CCOc1ccc(-c2nc(-c3ccncc3)c(-c3ccc4c(c3)CC/C4=N\O)[nH]2)cc1` yielded a % of control in series [6] of 100%.
For the molecule `CC(=O)c1cc(-c2ccccc2OCC2CC2)c2ncccn12`, the % of control in [7] is 100%.
Consider `CN(C(=O)c1cnn2cccnc12)c1cc2c(cc1N1CCOCC1)C(=O)N(C[C@@H](F)C(C)(C)O)C2`, for which the dTM in series [8] amounted to 0.7 K.
As for `CN(C)C(=O)Cn1cc(-c2ccc(-c3cncc4ccccc34)cc2)cn1`, at hERG (KCNH2), the activity turned out to be 85%.
The molecule `CN1Cc2nccc(-c3cn(C)nc3-c3ccc(F)cc3)c2C1=O` came in with a % of inhibition in series [9] of 3%.
Regarding `O[C@H]1CC[C@H](Nc2ncc3nc(Nc4c(F)cc(F)cc4F)n([C@H]4CCOC4)c3n2)CC1`, the % of control in series [10] was 75%.
